Columns and labels:
HIV-integrase = HIV-integrase (Human immunodeficiency virus type 1 group M subtype B, UniProt P04585); conditions: Huang et al. 2007; cited from earlier work
[1] = system: X4-tropic virus (NL.4.3 Ren); experiment: Antiviral activity in PBMC's, X4-tropic virus; assay type: cell-based, HIV-1; conditions: PBMC's activated with PHA+IL-2; compared with MT-2
Description: Similar assays were carried out using peripheral blood mononuclear cells (PBMC's) for healthy donors, prior activation with PHA+IL-2 during 48 hours and maintaining with IL-2 for at least another 48 hours. In this case the number of cells per well was 250.000. In addition, infection with HIV virus with R5-tropism (JR-Ren) was also included in the assays.

[2] = Vaginal tolerance in rabbits after repeated topical administration; assay type: in vivo; conditions: rabbit, once daily 7 days, solution 90 and 397 mg/L
Description: To determine the safety of hydroxytyrosol, a study of vaginal tolerance in rabbits after repeated once daily administration during 7 days was performed. Hydroxytyrosol was applied as a solution.

[3] = system: raltegravir resistant HIV virus (mutation 148); experiment: Antiviral activity against raltegravir resistant viruses; assay type: cell-based; conditions: viruses resistant to raltegravir
[4] = system: recombinant virus NL4.3-delta-env-VSV-Luc (HIV VSV pseudotyped virus); assay type: cell-based, HIV-1
MT-2 cells = experiment: Viability assay on non-infected MT-2 cells; conditions: 48 hour

In the case of `OCCc1ccc(O)c(O)c1` [Hydroxytyrosol, 4-(2-hydroxyethyl)-1,2-benzenediol], the “effect on in vitro HIV-integrase activity” value (HIV-integrase) is given as “dose-dependent inhibitory effect”, the “IC50 value for infection with X4-tropic” value [1] is given as “higher than in the assays with cell line MT-2” and the “mean irritation value (MIV)” value [2] is given as 0.00. The “morphological alterations in the vagina” value [2] was “no morphological alterations”, the “activity against integrase resistant viruses” value [3] was “lack of cross resistance” and the “activity against integrase resistant viruses” value ([3]; listed as hydroxytyrosol) was “mantained its activity”. For the same molecule, the “inhibition of VSV pseudotyped viruses” value [4] was “inhibits VSV pseudotyped viruses” and the “toxicity / cell viability” value (MT-2 cells) was “not due to toxicity”.
